In patent US4021421A, “Benzodiazepine derivatives” (Richter Gedeon Vegyeszeti Gyar Rt., priority 1974, dated 1977):

Columns and labels:
hexobarbital oxidase = test: in vivo hexobarbital oxidase activity: hexobarbital sleeping time in rats (enzyme induction); parameters: species or system male Wistar rats; conditions: 40 mg./kg. oral; for Difference % (period of sleep vs. control): 24 hours, vs. control group, difference greater than 25% regarded as biologically significant; for Period of sleep, min. ± standard error: hexobarbital sodium 40 mg./kg. i.v. 24 hours later, control 28.50 ± 3.12 min.
Protocol: The enzyme-inducing effects of the new compounds were examined under in vivo conditions by determining the hexobarbital oxidase activity. The active agents of the formula (I) were administered to male Wistar rats weighing 50 to 60 g. in oral dosages of 40 mg./kg. The effect appears 24 hours after the administration of the enzyme-inducing substance. At that time the inactivation rate of hexobarbital was determined by administering intravenously 40 mg./kg. of hexobarbital sodium into the animals and measuring the time elapsed between the administration and the reappearance of the righting reflex. The period of sleep observed for the animals treated with the new compounds was compared to that observed in the control group (the animals belonging to the control group were treated with carrier substance only).
24 Hours after the administration of the enzyme-inducing compounds the in vivo inactivation of hexobarbital accelerates, which is evidenced by the shortening of the period of sleep. The results were expressed as percentage differences with respect to the controls. On the basis of the preliminary experiments a difference greater than 25% was regarded to be biologically significant.

hexobarbital = test: biological half life-time of hexobarbital (UV spectrophotometry of plasma); conditions: half-life of hexobarbital in treated rats, control 38 min.

| SMILES | Difference % (period of sleep vs. control) (hexobarbital oxidase) [%] | Period of sleep, min. ± standard error (hexobarbital oxidase) [min] | T1/2 (biological half life-time of hexobarbital) (hexobarbital) [min.] |
| --- | --- | --- | --- |
| CN1C(=O)CN(N=Cc2ccc(O)cc2)C(c2ccccc2)c2cc(Cl)ccc21 (stereo not drawn) [Example 10, 1-Methyl-4-(p-hydroxy-benzalamino)-5-phenyl-7-chloro-1,3,4,5-tetrahydro-2H-1,4-benzodiazepine-2-one] | -41 | 16.82 ± 1.84 | – |
| CN1C(=O)CN(N)C(c2ccccc2)c2cc(Cl)ccc21 (stereo not drawn) [Example 3, 1-Methyl-4-amino-5-phenyl-7-chloro-1,3,4,5-tetrahydro-2H-1,4-benzodiazepine-2-one] | -35 | 18.57 ± 2.06 | – |
| CN1C(=O)CN(NC(=O)CCl)C(c2ccccc2)c2cc(Cl)ccc21 (stereo not drawn) [Example 12, 1-Methyl-4-chloroacetamino-5-phenyl-7-chloro-1,3,4,5-tetrahydro-2H-1,4-benzodiazepine-2-one] | -33 | 19.10 ± 2.28 | – |
| CC(=O)NN1CC(=O)N(C)c2ccc(Cl)cc2C1c1ccccc1 (stereo not drawn) [Example 13, 1-Methyl-4-acetylamino-5-phenyl-7-chloro-1,3,4,5-tetrahydro-2H-1,4-benzodiazepine-2-one] | -29 | 20.24 ± 2.17 | – |
| O=NN1CC(=O)Nc2ccc([N+](=O)[O-])cc2C1c1ccccc1 (stereo not drawn) [Example 2, 4-Nitroso-5-phenyl-7-nitro-1,3,4,5-tetrahydro-2H-1,4-benzodiazepine-2-one] | -51 | 13.97 ± 2.10 | – |
| CN1C(=O)CN(N=O)C(c2ccccc2)c2cc(Cl)ccc21 (stereo not drawn) [Example 1, 1-Methyl-4-nitroso-5-phenyl-7-chloro-1,3,4,5-tetrahydro-2H-1,4-benzodiazepine-2-one] | -42 | 16.53 ± 1.93 | – |
| CN1C(=O)CN(N=Cc2ccccc2)C(c2ccccc2)c2cc(Cl)ccc21 (stereo not drawn) [Example 5, 1-Methyl-4-benzalamino-5-phenyl-7-chloro-1,3,4,5-tetrahydro-2H-1,4-benzodiazepine-2-one] | -58 | 11.96 ± 1.38 | 26 |
